Measured values: paper PMC8162404, “Proteomimetic surface fragments distinguish targets by function” (Chemical Science, 2020)

What was measured:
[1] = target: T1, Gal-1 (Homo sapiens, UniProt P09382); assay: Pull-down assay with immobilized protein and LSM libraries; format: binding; settings: H14 library; 1:1 binding assumed; read-out: Surface mapping KD (apparent)
T1 construct: made in house; host or cells: E. coli BL21(DE3)
In short: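 His-tagged protein immobilized on Co-NTA resin (64 µM) in 20 mM HEPES pH 7.4, 150 mM NaCl, equilibrated 30 min at room temperature with foldamer LSM sublibraries at equimolar total concentration. Unbound fractions quantified by HPLC-MS versus protein-free resin control; apparent KD assumes 1:1 binding.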

[2] = target: T2, S100A4 (Homo sapiens, UniProt P26447); assay: as above; format: binding; settings: H14 library; 1:1 binding assumed; read-out: Surface mapping KD (apparent)
T2 construct: made in house; host or cells: Escherichia coli BL21(DE3)
T2 sequence (P26447 whole entry): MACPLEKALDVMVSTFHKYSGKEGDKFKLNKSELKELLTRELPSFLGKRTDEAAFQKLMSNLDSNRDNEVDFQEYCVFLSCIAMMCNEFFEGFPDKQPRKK
In short: (§1)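 Buffers were HEPES pH 7.4 with 150 mM NaCl, plus 1 mM TCEP and 1 mM CaCl2 (50 mM HEPES) for S100A4 and S100B, 1 mM TCEP for Gal-1, and no additive for RecQ-WH. Immobilized protein at 64 µM was equilibrated 30 min with the LSM sublibrary, and unbound probes were measured by LC-MS.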

[3] = target: T1, Gal-1; assay: Competition pull-down with lactose; format: binding; settings: H14 library; lactose 10 mM; read-out: Surface mapping KD (apparent), competition
Method: Interactions between the H14 helical LSMs and the targets were abundant, but safe recognition of the native PPI interfaces on the targets is a criterion of druggability. To gain insight into the ability of the LSMs to detect orthosteric spots, we carried out pull-down assays in the presence of the native ligands (Table 2) of the targets (Fig. 5). For highlighting the effect of the competitor on the binding fingerprints, KD ratios and the LSM replacement percentages were calculated and are represented as heat maps (see ESI, Fig. S7 ^†). […] This could be explained by the glycan selective native recognition domain of the protein. We note that the replacement pattern for a single probe can, in theory, be complex. […] Moreover, a single probe can bind to both orthosteric and non-orthosteric spots, which limits overall displacement levels. To avoid overlooking interesting orthosteric weak binders, direct replacement levels were assessed (see ESI, Fig. S7 ^†).
Pull-down assay and data analysis
Pull-down assay. LSM sublibraries were screened separately as previously described.(2) Experiments were performed in the following buffers: (i) 20 mM pH 7.4 HEPES, 150 mM NaCl, 5 mM CaCl2 for CaM; (ii) 50 mM pH 7.4 HEPES, 150 mM NaCl, 1 mM TCEP, 1 mM CaCl2 for S100 proteins; (iii) 20 mM pH 7.4 HEPES, 150 mM NaCl, 1 mM TCEP for Gal-1 and (iv) 20 mM pH 7.4 HEPES, 150 mM NaCl for RecQ-WH. Assays were performed in paper filter spin cups (Thermo Scientific) with sample volumes of 100 µl. Hexahistidine-tagged proteins were immobilized on previously washed Co-NTA resin (TALON, Takara Bio USA, Inc., Mountain View, CA) in 64 µM final concentration. LSM sublibrary was added, in which each of the 64 library members were used at a concentration of 1 µM. Samples were incubated at room temperature for 30 min with shaking at 100 rpm. Then, samples were centrifuged at 1000 rpm for 2 min and washed with 100 µl pull-down buffer to remove unbound compounds.
The control experiments were performed using the same compounds and the resin but without the immobilized protein. In case of competitive assays, competitor peptides were added to LSM sublibrary samples in 200 µM final concentration. In the case of Gal-1, lactose (competitor) was used in a concentration of 10 mM. Experiments were performed at least twice. Mean […]
LC-MS methods and parameters. HPLC/ESI-MS analysis was used to characterize the samples from the pull-down assay. LC-MS analysis was performed with a Thermo Scientific Dionex UltiMate 3000 HPLC system interfaced to an LTQ ion trap mass spectrometer (Thermo Electron Corp., San Jose, CA, USA). Samples were injected onto an Aeris Widepore XB-C18 (250 x 4.6 mm) analytical HPLC column using gradient elution 5-80 % solution B during 25 minutes. For pull-down samples, eluent composition was 0.1% acetic acid in distilled water (Solution A) and 0.1% acetic acid in acetonitrile (solution B). Mass spectra were acquired in full scan mode from 200 to 2000 m/z range. For overlapping peaks, selective reaction monitoring (SRM) was […]
MS data analysis. Thermo Xcalibur 2.2 software was used for peak identification and integration. The majority of the foldameric fragments could be resolved independently via HPLC-MS/MS measurements based on molecular weight, MS fragmentation pattern and retention time. Peaks of some foldamers with β3-hIle or β3-hLeu in position R2 could not be resolved, these were integrated and averaged. In the processing method, each sample component was associated to a chromatographic peak based on previously identified mass (m/z) and retention time (ref (2) and Table S7-10). Using ICIS peak detection algorithm, the general detection and integration criteria were: smoothing points: 5, baseline window: 80, area noise factor: 5, peak noise factor: 10. Using these processing setups, all raw data files were reprocessed together and analyzed. Errors in peak identification during the automatic processing were corrected manually.
Calculation of the discussed parameters […]

[4] = target: T3, CaM (Bos taurus, UniProt P62157); assay: Competition pull-down with native ligand TRPV1-Ct15; format: binding, bovine; settings: H14 library; competitor peptide 200 µM; read-out: Surface mapping KD (apparent), competition
T3 construct: made in house; host or cells: E. coli BL21 (DE3)

[5] = target: T4, S100B (Homo sapiens, UniProt P04271); assay: Pull-down assay with immobilized protein and LSM libraries; format: binding; settings: H14 library; 1:1 binding assumed; read-out: Surface mapping KD (apparent)
T4 construct: made in house; host or cells: Escherichia coli BL21(DE3)
T4 sequence (P04271 1-92): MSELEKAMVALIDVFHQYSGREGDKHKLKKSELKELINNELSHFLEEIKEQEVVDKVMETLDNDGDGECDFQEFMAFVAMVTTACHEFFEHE
In short: as §1

[6] = target: T3, CaM; assay: as above; format: binding, bovine; settings: H14 library; 1:2 stoichiometry assumed; read-out: Surface mapping KD (apparent)
In short: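 His-tagged protein immobilized on Co-NTA resin, equilibrated 30 min at room temperature with LSM sublibraries (64 members, […]), equimolar protein to total probe. CaM buffer: 20 mM HEPES pH 7.4, 150 mM NaCl, 5 mM CaCl2. Bound fractions from HPLC-MS loss of unbound probe versus protein-free resin control; Kd derived.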

T1 sequence (P09382 whole entry): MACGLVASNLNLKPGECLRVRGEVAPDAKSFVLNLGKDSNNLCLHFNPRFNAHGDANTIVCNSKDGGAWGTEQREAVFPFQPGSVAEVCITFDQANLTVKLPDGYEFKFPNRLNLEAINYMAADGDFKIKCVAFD

Kd [3] | Kd [6] | SMILES | further results
416 µM |  | C[C@@H](CC(=O)N[C@H]1CCCC[C@@H]1C(=O)N[C@H]1CCCC[C@@H]1C(=O)N[C@H](CC(=O)N[C@H]1CCCC[C@@H]1C(N)=O)[C@@H](C)O)NC(=O)[C@H]1CCCC[C@@H]1N [H14 AT] | Kd [1]: 443 µM; Kd [2]: 356 µM
 |  | NC(=O)[C@H]1CCCC[C@@H]1NC(=O)C[C@H](CC(=O)O)NC(=O)[C@H]1CCCC[C@@H]1NC(=O)[C@H]1CCCC[C@@H]1NC(=O)C[C@H](CC(=O)O)NC(=O)[C@H]1CCCC[C@@H]1N [H14 DD] | Kd [4]: 447 µM
318 µM |  | NC(=O)[C@H]1CCCC[C@@H]1NC(=O)C[C@H](CCC(=O)O)NC(=O)[C@H]1CCCC[C@@H]1NC(=O)[C@H]1CCCC[C@@H]1NC(=O)C[C@H](CC(=O)O)NC(=O)[C@H]1CCCC[C@@H]1N [H14 DE] | 
 |  | NC(=O)CC[C@@H](CC(=O)N[C@H]1CCCC[C@@H]1C(N)=O)NC(=O)[C@H]1CCCC[C@@H]1NC(=O)[C@H]1CCCC[C@@H]1NC(=O)C[C@H](CC(=O)O)NC(=O)[C@H]1CCCC[C@@H]1N [H14 DQ] | Kd [4]: 212 µM
415 µM |  | NC(=O)[C@H]1CCCC[C@@H]1NC(=O)C[C@H](CO)NC(=O)[C@H]1CCCC[C@@H]1NC(=O)[C@H]1CCCC[C@@H]1NC(=O)C[C@H](CC(=O)O)NC(=O)[C@H]1CCCC[C@@H]1N [H14 DS] | 
282 µM |  | C[C@@H](O)[C@@H](CC(=O)N[C@H]1CCCC[C@@H]1C(N)=O)NC(=O)[C@H]1CCCC[C@@H]1NC(=O)[C@H]1CCCC[C@@H]1NC(=O)C[C@H](CC(=O)O)NC(=O)[C@H]1CCCC[C@@H]1N [H14 DT] | 
316 µM |  | CC(C)[C@@H](CC(=O)N[C@H]1CCCC[C@@H]1C(N)=O)NC(=O)[C@H]1CCCC[C@@H]1NC(=O)[C@H]1CCCC[C@@H]1NC(=O)C[C@H](CC(=O)O)NC(=O)[C@H]1CCCC[C@@H]1N [H14 DV] | 
318 µM |  | NC(=O)[C@H]1CCCC[C@@H]1NC(=O)C[C@H](CC(=O)O)NC(=O)[C@H]1CCCC[C@@H]1NC(=O)[C@H]1CCCC[C@@H]1NC(=O)C[C@H](CCC(=O)O)NC(=O)[C@H]1CCCC[C@@H]1N [H14 ED] | 
353 µM |  | NC(=O)[C@H]1CCCC[C@@H]1NC(=O)C[C@H](CCC(=O)O)NC(=O)[C@H]1CCCC[C@@H]1NC(=O)[C@H]1CCCC[C@@H]1NC(=O)C[C@H](CCC(=O)O)NC(=O)[C@H]1CCCC[C@@H]1N [H14 EE] | 
453 µM |  | NC(=O)C[C@@H](CC(=O)N[C@H]1CCCC[C@@H]1C(N)=O)NC(=O)[C@H]1CCCC[C@@H]1NC(=O)[C@H]1CCCC[C@@H]1NC(=O)C[C@H](CCC(=O)O)NC(=O)[C@H]1CCCC[C@@H]1N [H14 EN] | 
443 µM |  | NC(=O)CC[C@@H](CC(=O)N[C@H]1CCCC[C@@H]1C(N)=O)NC(=O)[C@H]1CCCC[C@@H]1NC(=O)[C@H]1CCCC[C@@H]1NC(=O)C[C@H](CCC(=O)O)NC(=O)[C@H]1CCCC[C@@H]1N [H14 EQ] | 
282 µM |  | NC(=O)[C@H]1CCCC[C@@H]1NC(=O)C[C@H](CO)NC(=O)[C@H]1CCCC[C@@H]1NC(=O)[C@H]1CCCC[C@@H]1NC(=O)C[C@H](CCC(=O)O)NC(=O)[C@H]1CCCC[C@@H]1N [H14 ES] | 
465 µM | 318 µM | C[C@@H](CC(=O)N[C@H]1CCCC[C@@H]1C(N)=O)NC(=O)[C@H]1CCCC[C@@H]1NC(=O)[C@H]1CCCC[C@@H]1NC(=O)C[C@H](CCCCN)NC(=O)[C@H]1CCCC[C@@H]1N [H14 KA] | Kd [5]: 319 µM
298 µM | 49 µM | NCCCC[C@@H](CC(=O)N[C@H]1CCCC[C@@H]1C(N)=O)NC(=O)[C@H]1CCCC[C@@H]1NC(=O)[C@H]1CCCC[C@@H]1NC(=O)C[C@H](CCCCN)NC(=O)[C@H]1CCCC[C@@H]1N [H14 KK] | Kd [5]: 53 µM
278 µM | 455 µM | NCCCC[C@@H](CC(=O)N[C@H]1CCCC[C@@H]1C(=O)N[C@H]1CCCC[C@@H]1C(=O)N[C@@H](CC(N)=O)CC(=O)N[C@H]1CCCC[C@@H]1C(N)=O)NC(=O)[C@H]1CCCC[C@@H]1N [H14 KN] | Kd [5]: 195 µM
370 µM | 242 µM | C[C@@H](O)[C@@H](CC(=O)N[C@H]1CCCC[C@@H]1C(N)=O)NC(=O)[C@H]1CCCC[C@@H]1NC(=O)[C@H]1CCCC[C@@H]1NC(=O)C[C@H](CCCCN)NC(=O)[C@H]1CCCC[C@@H]1N [H14 KT] | Kd [5]: 194 µM
149 µM | 33 µM | CSCC[C@@H](CC(=O)N[C@H]1CCCC[C@@H]1C(=O)N[C@H]1CCCC[C@@H]1C(=O)N[C@@H](CCCCN)CC(=O)N[C@H]1CCCC[C@@H]1C(N)=O)NC(=O)[C@H]1CCCC[C@@H]1N [H14 MK] | Kd [1]: 133 µM; Kd [2]: 339 µM; Kd [5]: 125 µM
421 µM | 326 µM | N=C(N)NCCC[C@@H](CC(=O)N[C@H]1CCCC[C@@H]1C(=O)N[C@H]1CCCC[C@@H]1C(=O)N[C@@H](CCC(N)=O)CC(=O)N[C@H]1CCCC[C@@H]1C(N)=O)NC(=O)[C@H]1CCCC[C@@H]1N [H14 RQ] | Kd [5]: 116 µM
177 µM |  | NC(=O)[C@H]1CCCC[C@@H]1NC(=O)C[C@H](CC(=O)O)NC(=O)[C@H]1CCCC[C@@H]1NC(=O)[C@H]1CCCC[C@@H]1NC(=O)C[C@H](Cc1ccc(O)cc1)NC(=O)[C@H]1CCCC[C@@H]1N [H14 YD] | Kd [1]: 119 µM

SMILES | Kd [3] | Kd [6] | further results
C[C@@H](CC(=O)N[C@H]1CCCC[C@@H]1C(N)=O)NC(=O)[C@H]1CCCC[C@@H]1NC(=O)[C@H]1CCCC[C@@H]1NC(=O)C[C@H](CC(N)=O)NC(=O)[C@H]1CCCC[C@@H]1N [H14 NA] |  | 185 µM | Kd [4]: 399 µM
NC(=O)C[C@@H](CC(=O)N[C@H]1CCCC[C@@H]1C(=O)N[C@H]1CCCC[C@@H]1C(=O)N[C@@H](CCC(=O)O)CC(=O)N[C@H]1CCCC[C@@H]1C(N)=O)NC(=O)[C@H]1CCCC[C@@H]1N [H14 NE] |  | 254 µM | Kd [1]: 378 µM; Kd [4]: 414 µM
NC(=O)CC[C@@H](CC(=O)N[C@H]1CCCC[C@@H]1C(=O)N[C@H]1CCCC[C@@H]1C(=O)N[C@@H](CC(=O)O)CC(=O)N[C@H]1CCCC[C@@H]1C(N)=O)NC(=O)[C@H]1CCCC[C@@H]1N [H14 QD] |  | 231 µM | Kd [1]: 379 µM; Kd [4]: 349 µM
